Experimental data published in PMC9500072, “Topical application of an irreversible small molecule inhibitor of lysyl oxidases ameliorates skin scarring and fibrosis” (Nature Communications, 2022).
Values joined by “and” are separate entries in the source; they are usually repeats but may differ in a detail not shown here. Equal entries are not always repeated.

How the values were obtained:
[1] = target: T1, DAO (Homo sapiens, UniProt P19801); test: Compound oxidation by DAO; assay type: biochemical
T1 sequence (P19801 20-751): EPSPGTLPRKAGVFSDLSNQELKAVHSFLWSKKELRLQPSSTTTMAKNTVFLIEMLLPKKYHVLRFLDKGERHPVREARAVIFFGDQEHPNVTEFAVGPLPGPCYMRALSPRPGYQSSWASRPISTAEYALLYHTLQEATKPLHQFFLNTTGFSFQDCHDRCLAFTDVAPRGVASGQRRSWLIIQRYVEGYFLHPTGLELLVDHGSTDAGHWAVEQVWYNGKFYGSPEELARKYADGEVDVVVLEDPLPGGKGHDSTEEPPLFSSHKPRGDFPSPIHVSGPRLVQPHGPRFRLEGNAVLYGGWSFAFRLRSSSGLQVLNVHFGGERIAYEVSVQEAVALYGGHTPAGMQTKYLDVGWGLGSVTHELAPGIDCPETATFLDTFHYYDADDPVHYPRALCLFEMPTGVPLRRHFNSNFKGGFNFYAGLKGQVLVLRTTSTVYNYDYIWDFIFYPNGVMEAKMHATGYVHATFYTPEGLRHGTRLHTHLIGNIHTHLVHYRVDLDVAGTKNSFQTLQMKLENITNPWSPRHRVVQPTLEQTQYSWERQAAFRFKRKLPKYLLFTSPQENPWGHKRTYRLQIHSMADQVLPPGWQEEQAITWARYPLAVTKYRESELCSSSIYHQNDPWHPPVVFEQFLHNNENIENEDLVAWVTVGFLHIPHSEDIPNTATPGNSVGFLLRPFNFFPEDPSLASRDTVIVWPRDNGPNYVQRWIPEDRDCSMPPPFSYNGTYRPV

[2] = system: bleomycin-induced skin fibrosis; test: Bleomycin-induced skin fibrosis in mice; assay type: in vivo, C57BL/6 mice; set-up: Skin LOX activity: scale not given here
Description: With a pharmacokinetic and pharmacodynamic profile supportive of the potential as a potent topical anti-fibrotic treatment, we next moved to evaluate the in vivo efficacy of PXS-6302. Intradermal injections of bleomycin on alternate days for three weeks induces fibrosis[21],[22]. […] In this model, starting from Day 3 and continuing until Day 20, bleomycin-dosed mice (0.1U, alternate days), were treated once daily topically with 0% (vehicle) or 1.5% PXS-6302 oil in water cream (2 ×100 μL applications at a 10-min interval). […] As bleomycin also stimulates the expression of degrading enzymes such as matrix metalloproteases, the significant drop in hydroxyproline and immature crosslinks could be related to both the reduced production as well as the accelerated degradation of these matrix proteins.
Cell pellets or isolated tissue samples were completely hydrolyzed in 1.5 mL 6 M hydrochloric acid for 24 h at 105 °C. After complete hydrolysis, samples were dried using a vacuum dryer and reconstituted using 200 µL MilliQ water. The sample clean-up was performed using solid-phase extraction method which uses C18 and SCX solid-phase extraction cartridges for sample purification. The samples were run on UPLC-MS-MS (Mass Spectrometer: Thermo Scientific TSQ Endura Triple quadrupole, UPLC: Thermo Scientific Dionex UltiMate 3000) using Agilent RRHD SB-C18,2.1x50mm,1.8um analytical column and solvent A: 10 mM ammonium formate, 0.1% formic acid, 0.1% HFBA in H2O and solvent B: 10 mM ammonium formate, 0.1% formic acid, 0.1% HFBA in MeOH and analyzed as previously described. Limits of detection are listed in Supplementary Table S4.
8–10-week old C57BL/6 mice (n = 10 each group) were used to induce skin fibrosis. Bleomycin (Bleomycin sulfate from Streptomyces verticillicus, Euroasia) dry powder 1.5 IU/mg was reconstituted in saline at 2 IU/ml concentration. Starting on day 0 and continuing on alternate days thereafter, animals received subcutaneous injection of Bleomycin (0.1 IU in 50 µL volume) and/or saline on the right flank. For each animal, each dose was injected at a single site. The injections were continued for 20 days throughout the study. Starting from day three, vehicle cream or vehicle plus drug cream were applied topically once a daily treatment to a 2 cm × 2 cm area on the right dorsal flank of the animal for 20 days. On Day 21, all animals were euthanized and the skin tissue was collected for further histopathological analysis. The skin tissue was fixed in 4% PFA and sectioned skin was stained with Masson’s Trichrome, Collagen I and LOX and used to assess dermal fibrosis. Masson’s Trichrome was used to assess fibrotic index. Collagen Stain was subjectively scored for intensity as compared to control tissue. LOX Stain was subjectively scored as stain accumulation compared to control tissue. All images were assessed by assessors blinded to the treatment group. Composite skin/immunohistochemistry scoring tables used are in the Supplementary Information (Supplementary Tables S5, S6).

[3] = Systemic exposure in rat at 1000 mg/kg/day; assay type: in vivo; conditions: daily for 1 week
[4] = target: Adenosine A2A (Homo sapiens, UniProt P29274); test: Eurofins panel 200610; assay type: binding
[5] = target: Adrenergic α1A (Rattus norvegicus, UniProt P43140); test: Eurofins panel 203100; assay type: binding
[6] = target: Adrenergic β2 (Homo sapiens, UniProt P07550); test: Eurofins panel 204110; assay type: binding
[7] = system: Androgen (Testosterone); test: Eurofins panel 206000; assay type: binding, human
[8] = target: Endothelin ETA (Homo sapiens, UniProt P25101); test: Eurofins panel 224010; assay type: binding
[9] = system: GABAA, Flunitrazepam, Central; test: Eurofins panel 226600; assay type: binding, rat
[10] = system: Glutamate, NMDA, Agonism; test: Eurofins panel 232810; assay type: binding, rat
[11] = target: Muscarinic M1 (Homo sapiens, UniProt P11229); test: Eurofins panel 252610; assay type: binding
[12] = target: Opiate δ1 (OP1, DOP) (Homo sapiens, UniProt P41143); test: Eurofins panel 260130; assay type: binding
[13] = target: Opiate µ(OP3, MOP) (Homo sapiens, UniProt P35372); test: Eurofins panel 260410; assay type: binding
[14] = target: Serotonin (5-Hydroxytryptamine) 5-HT2B (Homo sapiens, UniProt P41595); test: Eurofins panel 271700; assay type: binding
[15] = target: Transporter, Dopamine (DAT) (Homo sapiens, UniProt Q01959); test: Eurofins panel 220320; assay type: binding
[16] = target: Transporter, Serotonin (5- Hydroxytryptamine) (SERT) (Homo sapiens, UniProt P31645); test: Eurofins panel 274030; assay type: binding
[17] = […] cream topically once daily, Day 3 to Day 20

Sequence of Adrenergic β2 (P07550 whole entry): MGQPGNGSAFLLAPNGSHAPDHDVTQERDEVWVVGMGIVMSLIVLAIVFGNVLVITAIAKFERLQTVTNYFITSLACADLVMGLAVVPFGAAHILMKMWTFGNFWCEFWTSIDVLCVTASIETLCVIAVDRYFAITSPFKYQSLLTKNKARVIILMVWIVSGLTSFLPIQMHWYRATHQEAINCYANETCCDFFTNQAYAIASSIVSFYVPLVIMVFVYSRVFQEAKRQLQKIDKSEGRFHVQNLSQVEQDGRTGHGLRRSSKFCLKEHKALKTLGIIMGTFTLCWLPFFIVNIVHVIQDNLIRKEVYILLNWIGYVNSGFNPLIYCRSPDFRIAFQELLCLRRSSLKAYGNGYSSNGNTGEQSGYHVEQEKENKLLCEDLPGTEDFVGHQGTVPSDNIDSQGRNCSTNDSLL
Sequence of Endothelin ETA (P25101 21-427): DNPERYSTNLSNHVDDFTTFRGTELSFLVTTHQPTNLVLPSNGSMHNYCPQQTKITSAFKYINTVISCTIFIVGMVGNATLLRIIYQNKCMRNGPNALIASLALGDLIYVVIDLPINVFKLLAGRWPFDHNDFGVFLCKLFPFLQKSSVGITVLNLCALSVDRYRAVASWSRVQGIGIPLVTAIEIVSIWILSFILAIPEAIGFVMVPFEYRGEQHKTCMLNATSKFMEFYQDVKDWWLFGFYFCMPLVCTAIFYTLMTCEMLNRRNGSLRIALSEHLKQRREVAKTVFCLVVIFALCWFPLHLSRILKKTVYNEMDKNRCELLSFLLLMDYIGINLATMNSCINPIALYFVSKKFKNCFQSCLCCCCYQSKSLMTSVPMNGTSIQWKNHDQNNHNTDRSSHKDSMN
Sequence of Opiate µ(OP3, MOP) (P35372 whole entry): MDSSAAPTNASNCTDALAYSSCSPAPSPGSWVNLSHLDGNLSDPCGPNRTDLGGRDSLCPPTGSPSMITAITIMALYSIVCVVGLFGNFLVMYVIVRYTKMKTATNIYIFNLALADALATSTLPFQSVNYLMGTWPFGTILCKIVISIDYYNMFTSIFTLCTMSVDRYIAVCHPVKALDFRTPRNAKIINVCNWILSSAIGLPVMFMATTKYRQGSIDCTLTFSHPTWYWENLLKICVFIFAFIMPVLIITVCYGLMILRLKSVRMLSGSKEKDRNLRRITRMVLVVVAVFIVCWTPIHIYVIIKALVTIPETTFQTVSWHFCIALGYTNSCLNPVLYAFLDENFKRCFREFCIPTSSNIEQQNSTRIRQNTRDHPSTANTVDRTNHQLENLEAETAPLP
Sequence of Adrenergic α1A (P43140 whole entry): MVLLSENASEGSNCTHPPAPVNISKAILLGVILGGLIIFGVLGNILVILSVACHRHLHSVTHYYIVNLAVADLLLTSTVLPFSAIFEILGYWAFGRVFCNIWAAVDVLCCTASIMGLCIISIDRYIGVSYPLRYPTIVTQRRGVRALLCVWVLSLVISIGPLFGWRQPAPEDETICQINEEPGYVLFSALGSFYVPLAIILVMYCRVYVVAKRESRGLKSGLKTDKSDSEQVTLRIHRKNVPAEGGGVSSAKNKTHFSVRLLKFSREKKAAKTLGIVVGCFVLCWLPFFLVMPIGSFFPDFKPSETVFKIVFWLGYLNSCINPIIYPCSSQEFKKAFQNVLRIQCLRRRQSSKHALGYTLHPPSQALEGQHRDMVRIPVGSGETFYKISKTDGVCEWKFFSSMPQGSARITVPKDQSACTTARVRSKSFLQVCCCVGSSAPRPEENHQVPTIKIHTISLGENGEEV
Sequence of Transporter, Serotonin (5- Hydroxytryptamine) (SERT) (P31645 whole entry): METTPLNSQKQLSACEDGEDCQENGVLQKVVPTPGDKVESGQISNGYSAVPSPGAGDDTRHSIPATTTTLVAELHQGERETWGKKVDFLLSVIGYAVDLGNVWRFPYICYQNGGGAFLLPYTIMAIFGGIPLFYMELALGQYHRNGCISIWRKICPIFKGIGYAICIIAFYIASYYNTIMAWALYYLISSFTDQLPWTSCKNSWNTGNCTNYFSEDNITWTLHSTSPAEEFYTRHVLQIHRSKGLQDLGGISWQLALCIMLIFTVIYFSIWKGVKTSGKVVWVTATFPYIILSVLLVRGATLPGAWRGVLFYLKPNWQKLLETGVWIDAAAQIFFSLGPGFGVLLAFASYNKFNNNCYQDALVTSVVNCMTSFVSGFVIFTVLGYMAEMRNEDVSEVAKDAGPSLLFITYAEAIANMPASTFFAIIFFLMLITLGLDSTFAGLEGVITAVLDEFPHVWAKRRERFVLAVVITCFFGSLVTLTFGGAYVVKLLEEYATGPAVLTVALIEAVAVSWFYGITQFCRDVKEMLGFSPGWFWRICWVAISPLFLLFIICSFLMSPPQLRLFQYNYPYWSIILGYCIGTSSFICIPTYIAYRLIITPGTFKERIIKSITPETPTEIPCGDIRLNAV
Sequence of Transporter, Dopamine (DAT) (Q01959 whole entry): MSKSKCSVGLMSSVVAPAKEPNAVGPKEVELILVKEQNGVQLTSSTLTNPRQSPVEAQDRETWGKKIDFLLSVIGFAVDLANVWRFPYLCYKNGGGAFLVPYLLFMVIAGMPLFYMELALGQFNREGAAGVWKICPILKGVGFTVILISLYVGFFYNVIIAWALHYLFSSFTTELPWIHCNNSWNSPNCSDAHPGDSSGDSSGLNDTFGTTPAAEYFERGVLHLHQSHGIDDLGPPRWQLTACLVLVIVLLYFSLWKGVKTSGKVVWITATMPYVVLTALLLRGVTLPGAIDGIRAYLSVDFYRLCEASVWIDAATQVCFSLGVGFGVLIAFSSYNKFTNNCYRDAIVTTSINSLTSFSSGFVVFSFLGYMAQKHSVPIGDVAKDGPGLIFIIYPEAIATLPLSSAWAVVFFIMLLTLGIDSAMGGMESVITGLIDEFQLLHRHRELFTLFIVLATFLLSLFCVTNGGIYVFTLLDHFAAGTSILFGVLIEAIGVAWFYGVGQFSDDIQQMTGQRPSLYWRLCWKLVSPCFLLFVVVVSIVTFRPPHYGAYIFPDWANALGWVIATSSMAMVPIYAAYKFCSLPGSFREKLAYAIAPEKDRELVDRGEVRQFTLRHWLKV
Sequence of Opiate δ1 (OP1, DOP) (P41143 whole entry): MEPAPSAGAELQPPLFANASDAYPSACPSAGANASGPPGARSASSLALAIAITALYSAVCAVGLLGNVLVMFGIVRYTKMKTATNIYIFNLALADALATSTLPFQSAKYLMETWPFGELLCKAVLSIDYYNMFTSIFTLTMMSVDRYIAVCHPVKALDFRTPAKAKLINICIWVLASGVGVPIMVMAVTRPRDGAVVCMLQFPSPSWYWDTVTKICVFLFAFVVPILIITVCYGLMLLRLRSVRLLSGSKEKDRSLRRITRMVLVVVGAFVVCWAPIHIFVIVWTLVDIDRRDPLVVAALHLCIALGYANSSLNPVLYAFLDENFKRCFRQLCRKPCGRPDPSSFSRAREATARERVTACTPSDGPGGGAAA
Sequence of Adenosine A2A (P29274 whole entry): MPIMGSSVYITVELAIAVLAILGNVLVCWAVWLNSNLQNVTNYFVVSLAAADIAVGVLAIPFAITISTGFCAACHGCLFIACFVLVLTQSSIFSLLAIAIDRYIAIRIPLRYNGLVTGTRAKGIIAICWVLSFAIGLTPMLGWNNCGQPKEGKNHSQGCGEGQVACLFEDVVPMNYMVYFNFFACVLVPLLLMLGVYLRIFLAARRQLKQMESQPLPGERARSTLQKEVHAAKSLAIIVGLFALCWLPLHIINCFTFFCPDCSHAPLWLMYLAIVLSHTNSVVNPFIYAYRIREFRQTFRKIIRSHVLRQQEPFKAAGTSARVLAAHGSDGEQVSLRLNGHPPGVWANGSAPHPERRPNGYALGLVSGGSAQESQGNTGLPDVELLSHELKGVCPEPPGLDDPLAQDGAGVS
Sequence of Muscarinic M1 (P11229 whole entry): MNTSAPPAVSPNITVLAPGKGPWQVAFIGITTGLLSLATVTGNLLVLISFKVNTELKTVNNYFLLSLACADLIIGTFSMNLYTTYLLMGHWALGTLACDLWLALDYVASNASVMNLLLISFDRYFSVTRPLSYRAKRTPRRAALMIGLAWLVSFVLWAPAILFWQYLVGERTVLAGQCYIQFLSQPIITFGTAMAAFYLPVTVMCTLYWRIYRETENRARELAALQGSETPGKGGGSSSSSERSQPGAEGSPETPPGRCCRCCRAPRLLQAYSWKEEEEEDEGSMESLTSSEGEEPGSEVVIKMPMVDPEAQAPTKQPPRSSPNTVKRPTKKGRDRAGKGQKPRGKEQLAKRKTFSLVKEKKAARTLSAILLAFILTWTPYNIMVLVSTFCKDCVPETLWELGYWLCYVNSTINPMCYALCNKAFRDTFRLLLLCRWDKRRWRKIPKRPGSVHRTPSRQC
Sequence of Serotonin (5-Hydroxytryptamine) 5-HT2B (P41595 whole entry): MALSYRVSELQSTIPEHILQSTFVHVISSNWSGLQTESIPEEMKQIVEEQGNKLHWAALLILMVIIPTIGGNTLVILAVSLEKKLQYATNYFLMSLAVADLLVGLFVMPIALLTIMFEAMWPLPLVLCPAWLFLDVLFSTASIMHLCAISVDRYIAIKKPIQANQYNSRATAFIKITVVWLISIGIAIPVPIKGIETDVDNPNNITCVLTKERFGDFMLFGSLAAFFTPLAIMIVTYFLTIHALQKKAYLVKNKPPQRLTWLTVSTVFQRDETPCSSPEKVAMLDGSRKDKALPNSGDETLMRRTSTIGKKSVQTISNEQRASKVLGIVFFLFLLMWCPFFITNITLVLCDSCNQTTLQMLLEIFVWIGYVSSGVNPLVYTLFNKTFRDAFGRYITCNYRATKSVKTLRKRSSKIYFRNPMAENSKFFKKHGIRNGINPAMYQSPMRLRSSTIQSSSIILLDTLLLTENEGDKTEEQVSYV

For `N#CCCN` [BAPN, β-aminoproprionitrile, reference compound], the “DAO specificity (Fig 2G), oxidation, individual experiments” value (“DAO specificity (Fig 2G), oxidation” below) [1]; 30 was 3.03 and 4.57 and 4.19 and 2.62 and 3.96, the “DAO specificity (Fig 2G), oxidation” value [1]; 60 was 5.81 and 3.22 and 2.98 and 4.96 and the “DAO specificity (Fig 2G), oxidation” value [1]; 90 was 9.3 and 4.42 and 7.32.
For `NC/C=C(\F)CS(=O)(=O)c1ccccc1` [PXS-4787], the composite skin score ([2]; […] cream topically once daily) was “Reduced”, the “immunohistochemistry COL1 score” value ([2]; […] cream topically once daily) was “decreas ed” and the “immunohistochemistry LOX score” value ([2]; […] cream topically once daily) was “Decreased”. The systemic levels [3] was “negligible”, the inhibition at 10 µM ([4]; 10 µM) was 15% and the inhibition at 10 µM ([5]; 10 µM) was 1%. For the same compound, the inhibition at 10 µM ([6]; 10 µM) was 10%, the “% Inh.” value ([7]; 10 µM) was 2% and the inhibition at 10 µM ([8]; 10 µM) was 4%. The “% Inh.” value ([9]; 10 µM) was -1%, the “% Inh.” value ([10]; 10 µM) was 2% and the inhibition at 10 µM ([11]; 10 µM) was 56%. It also gave an inhibition at 10 µM ([12]; 10 µM) of 5%, an inhibition at 10 µM ([13]; 10 µM) of 3% and an inhibition at 10 µM ([14]; 10 µM) of 21%. The inhibition at 10 µM ([15]; 10 µM) was 6% and the inhibition at 10 µM ([16]; 10 µM) was 8%.
With `NC/C=C(\F)C(F)(F)S(=O)(=O)c1ccccc1` [PXS-6302] the “DAO specificity (Fig 2G), oxidation” value [1]; 30 was 1.03 and 0.98 and 1 and 1.08 and 0.97 and 0.99 and 1.04 and 1.01 and 1.07 and 0.91, the “DAO specificity (Fig 2G), oxidation” value [1]; 60 was 1.17 and 1.11 and 1.01 and the “DAO specificity (Fig 2G), oxidation” value [1]; 90 was 1.87 and 1.39 and 1.55. For the same compound, the “Skin LOX activity” value ([2]; Bleo + PXS-6302, individual animals) was 0.8656 and 1.07 and 1.02 and 1.046 and 0.9944 and 1.027 and 1.022 and 1.017 and 1.088, the Skin thickness ([2]; PXS-6302, individual animals) was 0.34 mm and 0.36 mm and 0.41 mm and 0.33 mm and 0.39 mm and 0.38 mm and 0.4 mm and the composite skin score ([2]; […] cream topically once daily) was “significantly reduced”. For the same compound, the “immunohistochemistry COL1 score” value ([2]; […] cream topically once daily) was “significantly reduced”, the “immunohistochemistry LOX score” value ([2]; […] cream topically once daily) was “significantly reduced” and the “LOX activity in skin” value [2, 17] was “significant reduction”. The “fibrosis as assessed by skin thickness” value [2, 17] was “significantly reduced”, the hydroxyproline content [2, 17] was “reduced” and the “immature crosslinking (DHLNL and HLNL)” value [2, 17] was “reduced”. The systemic levels [3] was “negligible”, the inhibition at 30 µM ([4]; read-out: % Inh.) was -6% and the inhibition at 30 µM ([5]; read-out: % Inh.) was 3%. The inhibition at 30 µM ([6]; read-out: % Inh.) was 17%, the “% Inh.” value ([7]; 30 µM) was -14% and the inhibition at 30 µM ([8]; read-out: % Inh.) was 7%. For the same compound, the “% Inh.” value ([9]; 30 µM) was 4%, the “% Inh.” value ([10]; 30 µM) was -16% and the inhibition at 30 µM ([11]; read-out: % Inh.) was 13%. For the same compound, the inhibition at 30 µM ([12]; read-out: % Inh.) was 26%, the inhibition at 30 µM ([13]; read-out: % Inh.) was 12% and the inhibition at 30 µM ([14]; read-out: % Inh.) was 63%. It also gave an inhibition at 30 µM ([15]; read-out: % Inh.) of 50% and an inhibition at 30 µM ([16]; read-out: % Inh.) of 20%.
